Assay results as given in PMC4591263, “The GSTome Reflects the Chemical Environment of White-Rot Fungi” (PLoS ONE, 2015).

Tests used:
Test in all cases: GSH conjugation of CDNB, Michaelis-Menten fit
Type in all cases: biochemical
Conditions in all cases: saturating GSH
TvGSTO-1S = molecular target: T1, TvGSTO-1S (Trametes versicolor, UniProt R7S9J3)
T1 construct: gene TRAVEDRAFT_75639; synthetic gene in pET-26b (NdeI/NotI), C-terminal His-tag, E. coli Rosetta2 (DE3) pLysS
T1 sequence (R7S9J3 1-256): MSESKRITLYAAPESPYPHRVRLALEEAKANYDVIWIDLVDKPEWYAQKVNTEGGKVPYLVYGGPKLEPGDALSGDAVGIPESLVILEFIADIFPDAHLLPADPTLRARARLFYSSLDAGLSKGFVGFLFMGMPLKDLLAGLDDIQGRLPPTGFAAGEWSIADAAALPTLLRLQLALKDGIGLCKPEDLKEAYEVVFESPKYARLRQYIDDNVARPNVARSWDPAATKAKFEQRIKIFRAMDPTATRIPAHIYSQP

TvGSTO-6S = molecular target: T2, TvGSTO-6S (Trametes versicolor, UniProt A0A384E158)
T2 construct: synthetic gene in pET-26b (NdeI/NotI), C-terminal His-tag, E. coli Rosetta2 (DE3) pLysS
T2 sequence (A0A384E158 1-246): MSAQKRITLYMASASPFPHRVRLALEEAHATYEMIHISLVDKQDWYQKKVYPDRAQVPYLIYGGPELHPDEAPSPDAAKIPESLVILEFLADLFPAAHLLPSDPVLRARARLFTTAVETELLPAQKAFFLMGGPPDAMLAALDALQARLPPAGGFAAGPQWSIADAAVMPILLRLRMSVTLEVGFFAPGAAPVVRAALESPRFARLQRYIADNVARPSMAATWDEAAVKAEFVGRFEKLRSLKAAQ

TvGSTO-3S = molecular target: T3, TvGSTO-3S (Trametes versicolor, UniProt A0A384E145)
T3 construct: synthetic gene in pET-26b (NdeI/NotI), C-terminal His-tag, E. coli Rosetta2 (DE3) pLysS
T3 sequence (A0A384E145 1-240): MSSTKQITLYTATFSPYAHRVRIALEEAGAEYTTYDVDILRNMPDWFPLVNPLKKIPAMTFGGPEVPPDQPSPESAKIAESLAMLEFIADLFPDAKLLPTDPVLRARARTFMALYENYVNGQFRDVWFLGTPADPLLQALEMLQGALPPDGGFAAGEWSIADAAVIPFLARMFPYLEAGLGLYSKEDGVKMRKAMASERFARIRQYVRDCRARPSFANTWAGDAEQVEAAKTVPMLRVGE

O=[N+]([O-])c1ccc(Cl)c([N+](=O)[O-])c1 [CDNB, 1-chloro-2,4-dinitrobenzene]
Km (TvGSTO-1S): All proteins exhibit an activity against CDNB | Km (TvGSTO-6S): All proteins exhibit an activity against CDNB | Km (TvGSTO-3S): All proteins exhibit an activity against CDNB
